Laboratory results reported in US12653776B2, “Methods of treatment of cancer by continuous infusion of coenzyme Q10” (priority 2013, dated 2026).
Where two headings read alike, the source gives them in different places.

Experiments:
[1] = Phase 1a/b study, 96-hour continuous IV infusion: pharmacokinetics; format: in vivo, human
Description: Blood samples for pharmacokinetic and pharmacodynamic analyses are collected during each cycle of monotherapy and combination therapy. Urine samples for determination of coenzyme Q10 renal clearance are collected only during Cycle 1 of monotherapy and combination therapy. A PET scan is performed within 2 weeks prior to starting treatment and after 2 weeks of coenzyme Q10 treatment, and 8 weeks of treatment on Arm 1 or 10 weeks of treatment on Arm 2. Core biopsies (2-3) are performed at the time of baseline and Week 2 PET scan for patients who opt-in to participate in these exploratory studies.

[2] = test system: solid tumors; experiment: Phase 1 study, 144-hour (6 day) continuous infusion; format: in vivo, human; details: monotherapy and combination therapy
Description: A phase 1 clinical trial evaluating a 144-hour (6 day) continuous infusion of coenzyme Q10 for treatment of solid tumors is earned out. Coenzyme Q10 is administered as a monotherapy (Arm 1) or in combination with chemotherapy (Arm 2). […] The study is an open label, non-randomized dose-escalation study. The estimated enrollment is 45 patients for monotherapy (Arm 1), and up to 120 patients for combination therapy (Arm 2).
A dosing schedule of two 72-hour doses is used. For the first 72-hour dose, a loading dose over 1 hour is followed by infusion of the remainder of the dose over 71 hours at a lower rate. […]
A phase 1 clinical trial for treatment of solid tumors using coenzyme Q10 monotherapy and coenzyme Q10 in combination with chemotherapy is carried out. […] Dose limiting toxicities are assessed during Cycle 1.
Assessments of the antitumor activity of coenzyme Q10 are performed at the end of Cycle 2 and every 2 cycles thereafter using standard techniques such as computerized tomography (CT) or magnetic resonance imaging (MRI) for patients with measurable disease. Response is evaluated using Response Evaluation Criteria in Solid Tumors (RECIST) v1.1. […] Once a dose level of coenzyme Q10 monotherapy is evaluated and the CRC determines it safe to escalate to the next dose level, Cohort 1 of Treatment Arm 2 of coenzyme Q10 in combination with chemotherapy opens to accrual. […]

[3] = Description: In the Phase 1a portion of the trial, patients who meet eligibility parameters receive 2 consecutive 48-hour infusions of coenzyme Q10 twice weekly on Monday and Wednesday (i.e., Days 1, 3, 8, 10, 15, 17, 22, and 24), essentially receiving coenzyme Q10 treatment for 96 hours per week of each 28-day cycle. At each dose level of Arm 1 and Arm 2, patients are treated for either 8 hours at minimum of outpatient monitoring or inpatient monitoring for the first 24-hrs of the first infusion of Cycle 1. All other treatments are administered in an outpatient setting. Dose limiting toxicities are assessed during Cycle 1.
The study is a standard 3+3 dose escalation design with the dose escalated in successive cohorts of 3 to 6 patients each. Toxicity at each dose level is graded according to National Cancer Institute Common Terminology Criteria for Adverse Events (CTCAE v4.02). Safety oversight is provided by the Cohort Review Committee (CRC). The CRC reviews and confirms all DLTs and monitor safety throughout the study (including Arm 2).
The 2 doses are administered over 4 consecutive days, i.e., the first dose on Monday-Wednesday and the second dose on Wednesday-Friday of each week. The study drug is administered undiluted via a central venous access device and the infusion rate is controlled by a programmable ambulatory infusion pump such as the CADD Prizm VIP (model 6101) ambulatory pump.
At each dose level of Arm 1 and Arm 2, patients are treated for either 8 hours at minimum of outpatient monitoring or inpatient monitoring for the first 24-hrs of the first infusion of Cycle 1. Patients are monitored for dose-limiting toxicity (DLT) or an AE that requires prolonged hospitalization. If no reaction to coenzyme Q10 develops, the patient will be discharged.
For the second dose of each week (i.e., on Days 3, 10, 17, and 24 of the cycle) the total dose volume are given over 48 hours with no loading dose as indicated in Table 6 below. Coenzyme Q10 Nanosuspension for Injection Dose Cohorts (Arm 1; Monotherapy).

[4] = combination with gemcitabine, Dose level 1 (50 mg/kg)

With coenzyme Q10 the “increase in the intratumor concentration of Coenzyme Q11” value ([1]; Patient 1, gastric adenocarcinoma, dose level 1 (66 mg/kg week)) was 15 fold, the pharmacokinetics ([1]; initial tested doses) was “linear distribution” and the “clinical and/or radiographic responses” value ([2]; at least some patients) was “Clinical and/or radiographic responses are seen”. The safety and tolerability ([2]; six day continuous infusion) was “safe and well tolerated”, the safety issues ([3]; combination with 5-Fluorouracil, Dose level 1 (50 mg/kg)) was “No 5FU-related issued” and the dose level evaluation ([3]; combination with 5-Fluorouracil, Dose level 2 (66 mg/kg)) was “Dose level cleared”. The safety issues ([3]; combination with docetaxel, Dose level 1 (50 mg/kg)) was “No docetaxel-related issued”, the “issues or DLTs” value ([3]; combination with docetaxel, Dose level 2 (66 mg/kg)) was “No issues or DLTs” and the “issues or DLTs” value ([3]; combination with docetaxel, Dose level 3 (kg mg/kg), evaluation ongoing) was “No issues or DLTs”. The “dose-limiting toxicity (DLT)” value [3, 4] was “no DLT”, the “thrombocytopenia (gemcitabine-related adverse event)” value [3, 4] was “Mild to moderate thrombocytopenia” and the bleeding events ([3]; continuous infusion protocol) was “No bleeding events were reported”. For the same substance, the coagulation abnormalities ([3]; continuous infusion protocol with aggressive pre-loading or treatment with Vitamin K) was “minimal coagulation abnormalities”, the overall safety ([3]; current dose levels, continuous infusion) was “safe at the current levels” and the “dose-limiting toxicity (DLT)” value ([3]; monotherapy Dose Level 1 (66 mg/kg), 9 subjects, grade 3 GGT) was 1 DLT. The “dose-limiting toxicity (DLT)” value ([3]; monotherapy Dose Level 2 (88 mg/kg), 4 subjects) was 0 DLT, the “dose-limiting toxicity (DLT)” value ([3]; monotherapy Dose Level 3 (110 mg/kg), 4 subjects, evaluation ongoing) was 0 DLT and the safety and tolerability ([3]; monotherapy and combination therapy, initial results) was “safe and well tolerated”. The triglycerides ([3]; no clinical significance) was “Transient elevation of triglycerides” and the “adverse events with increased infusion duration” value ([3]; vs four hour infusion at higher rate, expected at the end of the ongoing study) was “decrease adverse events”.
